The conditions of data set [1]: Liquid.
Data set [2] is described as follows: refractive index (Na D-line) (dimensionless). Conditions: 293.15 K; 101.33 kPa; Liquid; Standard Abbe refractometry.

From the NIST ThermoML archive (doi:10.1016/j.jct.2006.03.017) come the findings set out here.

The structures appear in SMILES notation. ± gives the expanded uncertainty stated by the source.

Take `CCCCCCCC/C=C\CCCCCCCCO` [(Z)-9-octadecen-1-ol]: the mass density (as a rule, mass per unit of volume) in data set [1] (293.15 K, 101.33 kPa) turned out to be 848.5 ± 44 kg/m3. Further, the vapor or sublimation pressure (usually the pressure of vapour in equilibrium with the condensed phase) in data set [1] (480.05 K, Distillation) was found to be 2 kPa. In addition, in data set [2], the refractive index (in general, the speed of light in vacuum divided by its phase velocity in the sample) was 1.4603 ± 0.0032.
